Source: patent publication US12421217B2, “Pyrazine derivative or salt thereof, and use of same” (FUJIFILM Corporation, priority 2019, dated 2025)

Key:
recombinant human DHODH = target: T1, recombinant human DHODH (Homo sapiens, UniProt Q02127); test: Enzyme reaction inhibition test (DHODH enzyme assay, DCIP quenching); type: biochemical; conditions: DCIP absorbance 600 nm, 50 minutes, read-out: Enzyme reaction inhibitory effect (IC50)
T1 construct: DHODH, 31-395 aa, Human, His tag, E. coli, ATGP1615; His tag; purchased ATGen Co. Ltd. ATGP1615; host or cells: E. coli
Experimental: The DHODH enzyme assay was carried out with reference to “Benjamin Bader, Wolfgang Knecht, Markus Fries, and Monika Loffler. Expression, Purification, and Characterization of Histidine-Tagged Rat and Human Flavoenzyme Dihydroorotate Dehydrogenase. Protein Expression and Purification, 1998, 13, 414-422.”
The DHODH activity was evaluated using an enzyme assay system that is coupled with an assay in which a blue coloring agent 2,6-dichlorophenol indophenol (DCIP, available from MP Biomedicals, LLC, MP150118) is quenched. Purified recombinant human DHODH (DHODH, 31-395 aa, Human, His tag, E. coli, ATGP1615) was purchased from ATGen Co. Ltd. The enzyme assay was carried out in a 384-well plate using a buffer solution containing 100 mmol/L Hepes (available from Dojindo Laboratories, 342-01375), 400 mmol/L NaCl (available from FUJIFILM Wako Pure Chemical Corporation, 191-01665), 10% Glycerol (available from FUJIFILM Wako Pure Chemical Corporation, 075-00616), 0.05% Triton X-100 (available from Sigma-Aldrich Co., LLC, T8787-100ML), 0.2 mmol/L Ubiquinone-10 (available from FUJIFILM Wako Pure Chemical Corporation, 216-00761), 0.1 mmol/L DHO (L-dihydroorotic acid, available from Sigma-Aldrich Co., LLC, D7128), 0.5% DMSO (dimethylsulfoxide, available from FUJIFILM Wako Pure Chemical Corporation, 047-29353), 0.175 μg/mL DHODH, and 0.12 mmol/L DCIP and having a pH adjusted to 8.0 by adding 5 mol/L potassium hydroxide (available from FUJIFILM Wako Pure Chemical Corporation, 168-21815). A test compound with a predetermined concentration was added using Biomek NX (available from Beckman Coulter Inc.), and the enzymatic reaction was started by adding the substrate. The enzyme activity was assessed by measuring the decrease in DCIP absorbance (600 nm) for 50 minutes using an EnVision plate-reading spectrophotometer (available from PerkinElmer, Inc.).
The enzyme reaction inhibition rate at each test compound concentration was determined, and the 50% enzyme reaction inhibition concentration [IC50 (nmol/L)] was calculated using XLfit. Enzyme reaction inhibition rate (%)=(amount of luminescence in test compound-added well)/(amount of luminescence in DMSO-added well)×100
The abbreviations in the table have the following meanings. • A: IC50 value<10 nmol/L • B: 10 nmol/L≤IC50 value<100 nmol/L • C: 100 nmol/L≤IC50 value

[1] = tested on: human acute myeloid leukemia cell line HL60; test: In vivo drug efficacy test in cancer-bearing mouse model with subcutaneous transplantation of HL60; conditions: NOD/scid mice, oral 10 to 30 mg/kg once daily for 10 days
Experimental: (Drug Efficacy Test in Cancer-Bearing Mouse Model with Subcutaneous Transplantation of HL60)
The human acute myeloid leukemia cell line HL60 (available from JCRB) was suspended in a mixture of RPMI-1640 medium and Matrigel (available from Corning Inc.), and then subcutaneously transplanted into 6-week-old female NOD/scid mice (available from CLEA Japan, Inc.). After confirming that the average tumor volume exceeded 200 mm^3, the test compound was dissolved in a solvent (1 equivalent sodium hydroxide solution) and orally administered to mice at a dose of 10 to 30 mg/kg once daily for 10 days. As a negative control, a solvent-administered group to which a 10 to 12 mmol/L sodium hydroxide solution was administered was provided. The tumor diameter was measured over time and the tumor volume was calculated. The tumor volume was calculated by measuring the major axis and the minor axis of the tumor and using the following expression. Tumor volume (mm^3)=[major axis (mm)×minor axis (mm)×minor axis (mm)]/2
T/C (%) was calculated from the average tumor volume of each group by the following expression, and the drug efficacy was evaluated. T/C (%)=(average tumor volume of drug-administered group)/(average tumor volume of solvent-administered group)×100%

[2] = tested on: human myeloid leukemia cell line HL60; test: Cell growth test (Cell Titer Glo); type: cell-based; conditions: HL-60, 72 h, HL60 cells, 3 days, read-out: Cell growth inhibitory effect (GI50)
Experimental: The cell growth test was carried out using the human myeloid leukemia cell line HL60 (available from ATCC, CRL-240). As a culture medium of HL60 cells, RPMI 1640 (available from FUJIFILM Wako Pure Chemical Corporation, 189-02025) supplemented with 10% fetal bovine serum (available from Thermo Fisher Scientific, Inc., 10437-028), and 1% penicillin-streptomycin (10,000 U/mL, available from Thermo Fisher Scientific, Inc., 15140-122) was used. HL60 cells were seeded on a 384-well plate (available from Corning Inc., 4588) at a cell density of 1×10^3 cells/20 μL/well. After culturing overnight, 5 μL of the test compound having a predetermined concentration was added, and 3 days later, 25 μL of Cell Titer Glo (registered trademark) Luminescent Cell Viability Assay (available from Promega Corporation, G7573) was added, and then the amount of luminescence was measured using an EnVision plate reader (available from PerkinElmer, Inc.). Since the amount of luminescence is proportional to the intracellular concentration of adenosine triphosphate (ATP), the amount of luminescence was used as an indicator of the number of viable cells. The growth inhibitory concentration for each test compound concentration was calculated by the following expression.
The growth inhibition rate at each test compound concentration was determined, and the 50% growth inhibitory concentration [GI50 (nmol/L)] was calculated using XLfit. Growth inhibition rate (%)=(amount of luminescence in test compound-added well)/(amount of luminescence in DMSO-added well)×100
The abbreviations in the table have the following meanings. • A: GI50 value<100 nmol/L • B: 100 nmol/L≤GI50 value<1,000 nmol/L • C: 1,000 nmol/L≤GI50 value

T1 sequence (Q02127 31-395): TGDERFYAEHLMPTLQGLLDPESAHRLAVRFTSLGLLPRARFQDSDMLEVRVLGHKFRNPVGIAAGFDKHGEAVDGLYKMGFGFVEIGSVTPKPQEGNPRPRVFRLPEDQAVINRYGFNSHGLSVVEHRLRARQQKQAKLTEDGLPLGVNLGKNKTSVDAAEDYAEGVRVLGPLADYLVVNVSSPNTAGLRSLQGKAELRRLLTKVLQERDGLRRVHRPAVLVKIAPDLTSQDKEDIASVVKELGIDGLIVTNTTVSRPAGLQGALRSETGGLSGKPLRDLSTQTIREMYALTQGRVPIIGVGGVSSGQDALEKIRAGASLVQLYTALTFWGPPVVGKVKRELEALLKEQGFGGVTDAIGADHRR

Row | IC50 (recombinant human DHODH) | GI50 [2] | Structure (SMILES) | tumor growth inhibition rate (T/C) [1]
1 | < 10 nM | < 100 nM | O=C(O)c1nc(C2CC2)cnc1Nc1cccc(C2=CCOCC2)c1OCC(F)(F)F [Example 2, 6-cyclopropyl-3-((3-(3,6-dihydro-2H-pyran-4-yl)-2-(2,2,2-trifluoroethoxy)phenyl)amino)pyrazine-2-carboxylic acid] | excellent tumor growth inhibition rate
2 | < 10 nM | < 100 nM | C[C@H](Oc1c(Nc2ncc(C3CC3)nc2C(=O)O)cccc1C1CCOCC1)C(F)(F)F [Example 10, (S)-6-cyclopropyl-3-((3-(tetrahydro-2H-pyran-4-yl)-2-((1,1,1-trifluoropropan-2-yl)oxy)phenyl)amino)pyrazine-2-carboxylic acid] | excellent tumor growth inhibition rate

The next lines start with the molecule.

Row | Structure (SMILES) | IC50 (recombinant human DHODH) | GI50 [2] | tumor growth inhibition rate (T/C) [1]
3 | CCCc1c(Nc2ncc(C3CC3)nc2C(=O)O)cccc1C1CCOCC1 [Example 13, 6-cyclopropyl-3-((2-propyl-3-(tetrahydro-2H-pyran-4-yl)phenyl)amino)pyrazine-2-carboxylic acid] | 10 to 100 nM | < 100 nM | excellent tumor growth inhibition rate
4 | C[C@H](Oc1c(Nc2ncc(C3CC3)nc2C(=O)O)cccc1C1=CCOCC1)C(F)(F)F [Example 8, (S)-6-cyclopropyl-3-((3-(3,6-dihydro-2H-pyran-4-yl)-2-((1,1,1-trifluoropropan-2-yl)oxy)phenyl)amino)pyrazine-2-carboxylic acid] | < 10 nM | < 100 nM | excellent tumor growth inhibition rate
5 | O=C(O)c1nc(C2CC2)cnc1Nc1cccc(C2CCOCC2)c1OCC(F)(F)F [Example 4, 6-cyclopropyl-3-((3-(tetrahydro-2H-pyran-4-yl)-2-(2,2,2-trifluoroethoxy)phenyl)amino)pyrazine-2-carboxylic acid] | < 10 nM | < 100 nM | excellent tumor growth inhibition rate
